The nature of series [1]: fall in serum triglyceride levels in male rats, 1 mg/kg per os. The class given is in vivo. As to conditions: 3-methylpyrazole-5-carboxylic acid addition salts. As to the method: When administered to male rats the 3-methylpyrazole-5-carboxylic acid addition salts of the compound of the formula (IV) wherein R2 is respectively a methyl, ethyl, isopropyl and n-butyl at a dose of 1 mg/kg per os produced a fall in serum triglyceride levels of about 23%, 34%, 34% and 56% respectively.

A short description of series [2]: acute toxicity (LD50) in mice. The class given is in vivo. As to conditions: for LD50: mouse, in vivo, mice.
Series [3] in a line: oral test in normal rats starved for 17 hours: serum lipid lowering. It counts as in vivo. The settings on record: rats starved 17 hours. As to the method: Similarly, a reduction in serum free fatty acid concentration of about 40-50% was produced over the dose range 0.15 mg/kg to 5 mg/kg.
For series [4] the following is noted: different animal species and man; cited from earlier work.

Like-named read-outs stand apart in the source and are kept apart here.

On to `CC(C)N(CCO)CC(O)Cn1cnc2c(N)ncnc21` (centres unmarked), for which, in series [1], the “fall in serum triglyceride levels” value is reported as ~34%. In the case of `CCCCN(CCO)CC(O)Cn1cnc2c(N)ncnc21` (centres unmarked), the “fall in serum triglyceride levels” value in series [1] is on record as ~56%.

`CCN(CCO)CC(O)Cn1cnc2c(N)ncnc21` (centres unmarked): in series [1], the “fall in serum triglyceride levels” value is listed as ~34%. Turning to `CN(CCO)CC(O)Cn1cnc2c(N)ncnc21` (stereo not drawn) [Example 1 (9-isomer), 6-Amino-9-[2-hydroxy-3-(N-methyl-N-2-hydroxyethyl)aminopropyl]purine], in series [2] (in words), the acute toxicity result is recorded as “low acute toxicity”. In addition, the LD50 in series [2] (iv, intra-venous, read-out: LD50 by intra-venous administration) was ~350 mg/kg; in series [2] (oral, read-out: LD50 by oral administration) it was ~1000 mg/kg. As to `CN(CCO)CC(O)Cn1cnc2c(N)ncnc21` (centres unmarked) [Example 2, 6-Amino-9-[2-hydroxy-3-(N-methyl-N-2-hydroxyethyl)aminopropyl]purine3-methylpyrazole-5-carboxylate], in series [3] (1 hour post administration, dose range 0.25 mg/kg to 25 mg/kg), the “reduction in serum triglyceride levels” value is 30-40%. Also, the “reduction in serum cholesterol levels” value in series [3] (dose of 100 mg/kg) was “about 30%”. Further, the “reduction in serum free fatty acid concentration” value in series [3] (dose range 0.15 mg/kg to 5 mg/kg) is 40-50%. The “fall in serum triglyceride levels” value in series [1] is recorded as “about 23%”.

Consider `Nc1ncnc2c1ncn2C[C@@H](O)[C@@H](O)C(=O)O` [lentinacin], for which, in series [4], the “lowering of lipid components of plasma lipoproteins (cholesterol, triglycerides and phospholipids)” value is on record as “lowers all lipid components of the plasma - lipoproteins”.

The values above are taken from US4123534A, “Adenine derivatives and hypolipidemic composition thereof” (Wulfing; Johann W., priority 1976, dated 1978).
